Source: paper PMC3088499 (Journal of medicinal chemistry, 2008)
“Also recorded” adds a separate entry of the source. Where a name gives a salt, the structure may show the parent alone. Read-outs that look alike come from different tables or passages of the source.

Legend:
[1] = biological target: T1, 5-HT2A receptor F340^6.52L mutant (Rattus norvegicus, UniProt P14842, F340L); test: [3H]ketanserin binding at F340L mutant 5-HT2A receptor; settings: F340L vs wild type 5-HT2A
NET = NET (Homo sapiens, UniProt P23975); test: [3H]nisoxitine binding, NET
Sequence of NET (P23975 whole entry): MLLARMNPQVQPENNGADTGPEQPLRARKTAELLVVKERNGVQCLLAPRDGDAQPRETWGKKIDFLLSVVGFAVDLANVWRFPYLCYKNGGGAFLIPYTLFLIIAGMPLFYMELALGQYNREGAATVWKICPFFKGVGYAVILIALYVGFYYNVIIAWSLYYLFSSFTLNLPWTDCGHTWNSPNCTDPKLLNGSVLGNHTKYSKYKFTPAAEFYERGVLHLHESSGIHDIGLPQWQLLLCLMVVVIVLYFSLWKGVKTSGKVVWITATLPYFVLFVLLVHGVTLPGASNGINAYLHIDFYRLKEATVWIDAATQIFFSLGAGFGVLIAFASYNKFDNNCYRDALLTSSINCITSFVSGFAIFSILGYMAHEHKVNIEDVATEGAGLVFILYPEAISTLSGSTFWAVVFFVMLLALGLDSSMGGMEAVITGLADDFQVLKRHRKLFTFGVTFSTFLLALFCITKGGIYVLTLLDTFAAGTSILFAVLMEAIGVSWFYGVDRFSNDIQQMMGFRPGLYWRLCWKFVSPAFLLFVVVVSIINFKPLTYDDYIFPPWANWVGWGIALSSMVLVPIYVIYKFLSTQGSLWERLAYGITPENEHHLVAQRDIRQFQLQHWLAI

[2] = biological target: T1, 5-HT2A receptor F340^6.52L mutant; settings: F340L vs wild type 5-HT2A, fold decrease; ref [41]; cited from earlier work
5-HT2A M132^2.62L mutant = settings: ref [107]; cited from earlier work
5-HT2A F125^2.55L mutant = settings: cited from earlier work
5-HT2A F125^2.55S mutant = settings: ref [107]; cited from earlier work
5-HT2A D172^3.49N mutant = settings: ref [105]; cited from earlier work
5-HT2A T134^2.64A mutant = settings: ref [107]; cited from earlier work
5-HT2A S159^3.36C mutant = settings: ref [45]; cited from earlier work
5-HT2A W367^7.40L mutant = settings: ref [44]; cited from earlier work
5-HT2A F340^6.52L mutant = settings: cited from earlier work
5-HT2A S159^3.36A mutant = settings: ref [45]; cited from earlier work
5-HT2A W200^4.50A mutant = settings: ref [44]; cited from earlier work
5-HT2A sites = settings: read-out: Ki, 5-HT2A receptor affinity; [3H]Ketanserin-labeled 5-HT2A sites; ref [13]; cited from earlier work

T1 sequence (P14842 whole entry F340L): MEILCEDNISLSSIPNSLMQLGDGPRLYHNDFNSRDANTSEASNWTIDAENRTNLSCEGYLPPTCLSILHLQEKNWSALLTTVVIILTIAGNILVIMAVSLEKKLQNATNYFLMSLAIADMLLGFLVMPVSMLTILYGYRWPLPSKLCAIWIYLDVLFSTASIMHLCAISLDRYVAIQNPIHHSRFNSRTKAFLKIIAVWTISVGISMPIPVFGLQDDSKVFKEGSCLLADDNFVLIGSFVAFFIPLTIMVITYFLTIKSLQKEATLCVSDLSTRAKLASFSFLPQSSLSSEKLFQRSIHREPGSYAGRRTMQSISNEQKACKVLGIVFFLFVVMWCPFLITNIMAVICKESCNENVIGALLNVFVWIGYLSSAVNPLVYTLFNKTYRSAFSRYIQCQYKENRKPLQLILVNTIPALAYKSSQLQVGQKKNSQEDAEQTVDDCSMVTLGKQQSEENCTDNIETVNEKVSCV

Structure (SMILES): NCC1c2ccccc2Cc2cc(Br)ccc21 (stereo not shown) [Compound 1b, 3-Bromo-9-aminomethyl-9,10-dihydroanthracene hydrochloride]
- decrease in affinity at F340L mutant compared to wild type receptor [1]: no change in affinity

Structure (SMILES): CCCCCCc1ccc2c(c1)Cc1ccccc1C2CN (stereo not shown) [Compound 1d, 3-n-Hexyl-9-aminomethyl-9,10-dihydroanthracene fumarate]
- selectivity for the 5-HT2A receptor over the norepinephrine transporter (NET): 120 fold

Structure (SMILES): COc1cc(CC(C)N)c(OC)cc1I (stereo not shown) [DOI, 2,5-dimethoxy-4-iodoamphetamine]
- effect of F340L mutation on affinity [2]: approximately 14,000 fold

Structure (SMILES): O=C(c1ccc(F)cc1)C1CCN(CCn2c(=O)[nH]c3ccccc3c2=O)CC1 [ketanserin]
- Effect on ketanserin binding affinity (5-HT2A M132^2.62L mutant): no effect
- Effect on ketanserin binding affinity (5-HT2A F125^2.55L mutant; ref [44]): no effect
- Effect on ketanserin binding affinity (5-HT2A F125^2.55L mutant; ref [104]): no effect
- Effect on ketanserin binding affinity (5-HT2A F125^2.55L mutant; ref [106]): no effect
- Effect on ketanserin binding affinity (5-HT2A F125^2.55S mutant): no effect
- Effect on ketanserin binding affinity (5-HT2A D172^3.49N mutant): no effect
- Effect on ketanserin binding affinity (5-HT2A T134^2.64A mutant): no effect
- Effect on ketanserin binding affinity (5-HT2A S159^3.36C mutant): no effect
- Effect on ketanserin binding affinity (5-HT2A W367^7.40L mutant): abolished; also recorded: no detectable binding
- Effect on ketanserin binding affinity (5-HT2A F340^6.52L mutant; ref [104]): no effect
- Effect on ketanserin binding affinity (5-HT2A F340^6.52L mutant; ref [107]): no effect
- Effect on ketanserin binding affinity (5-HT2A S159^3.36A mutant): no effect
- effect of F340L mutation on affinity [2]: little effect
- Effect on ketanserin binding affinity (5-HT2A W200^4.50A mutant): no effect

Structure (SMILES): NCC1c2ccccc2Cc2ccccc21 [Compound 1a, 9-aminomethyl-9,10-dihydroanthracene]
- decrease in affinity at F340L mutant compared to wild type receptor [1]: 3 fold

Structure (SMILES): COc1cc(CC(C)N)c(OC)cc1O (stereo not shown) [Compound 2g]
- Ki (5-HT2A sites): > 50 µM
